# From patent publication US4226610A, “Herbicidal compounds, preparation thereof and herbicides containing the same” (Meiji Selka Kaisha, Ltd., priority 1978, dated 1980)
# Structures can show the parent of a compound that is named as a salt.
# How the values were obtained:
# [1] = test system: hedge bindweed; assay: Experiment 1 foliar application to naturally growing weeds; assay type: in vivo, Calystegis hederacea Wall.; conditions: 4 months; further: key: -: no reproduction, namely complete suppression of reproduction; ±: remarkable suppression of reproduction; +: considerable suppression of reproduction; ++: medium supprestion of reproduction; +++: no suppression of reproduction
# In short: (§1)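 Read-outs were a 0–5 killing index at 21 days and a reproduction score from (-), no reproduction, to (+++), no suppression. Reproduction was read at 2 months for cockspar grass and 4 months for the other species, after foliar spraying at 150 liter per 10 are with 0.1% surfactant.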
# [2] = test system: eulalia; assay: Experiment 2 foliar application in Japanese cypress afforested land; assay type: in vivo, Miscanthus sinensis Andress.; design: key: 0 = no effect, 5 = death; conditions: 0.25%
# In short: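 Field foliar spray on shrubs in Japanese cypress afforested land at 150 liter per 10 are, with compounds at prescribed concentrations. Killing index scored from 0 (no effect) to 5 (death) at 30 days and 3 months. Plant heights ranged from about 50 to 100 cm.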
# [3] = test system: chigaya; assay: Experiment 1 foliar application to naturally growing weeds; assay type: in vivo, Imperata cylindrica Beauv.; conditions: 4 months; further: key: -: no reproduction, namely complete suppression of reproduction; ±: remarkable suppression of reproduction; +: considerable suppression of reproduction; ++: medium supprestion of reproduction; +++: no suppression of reproduction
# In short: (§2)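 Test compounds, diluted to prescribed concentrations with 0.1% octylphenyl polyoxyethanol surfactant, were sprayed onto foliage of naturally growing weeds at 150 liter per 10 are. Killing index (0, no effect; 5, death) was scored at 21 days. Reproduction was scored from (-), complete suppression, to (+++), none, at 2 months for cockspar grass and 4 months for the other weeds.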
# [4] = test system: Japanese prickly ash; assay: Experiment 3 foliar application to naturally growing shrubs; assay type: in vivo, Xanthoxylum piperitum DC.; conditions: after 3 months; further: key: -: no reproduction, namely complete suppression of reproduction; ±: remarkable suppression of reproduction; +: considerable suppression of reproduction; ++: medium supprestion of reproduction; +++: no suppression of reproduction
# In short: (§3)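 Sprays contained 0.1% octylphenyl polyoxyethanol and compound diluted to prescribed concentrations. They were applied to the leaves of wild shrubs at a rate of 150 liter per 10 are. Damage was rated 0–5 after one and three months, and regrowth − to +++ after three months.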
# [5] = test system: azumanezasa; assay: Experiment 1 foliar application to naturally growing weeds; assay type: in vivo, Pleioblastus Chino Makino; conditions: 4 months; further: key: -: no reproduction, namely complete suppression of reproduction; ±: remarkable suppression of reproduction; +: considerable suppression of reproduction; ++: medium supprestion of reproduction; +++: no suppression of reproduction
# In short: as §2
# [6] = test system: yabugarashi; assay: as above; assay type: in vivo, Cayratia japonica Houtt.; conditions: 4 months
# In short: as §1
# [7] = test system: purple nutsedge; assay: as above; assay type: in vivo, Cyperus rotundus L.; conditions: 4 months
# In short: as §1
# [8] = test system: yamazakura; assay: Experiment 3 foliar application to naturally growing shrubs; assay type: in vivo, Prunus donarium Sieb. var. spontanae Makino; conditions: after 3 months
# In short: as §3
# [9] = test system: warunasubi; assay: Experiment 1 foliar application to naturally growing weeds; assay type: in vivo, Solanum carolinensis L.; conditions: 4 months
# In short: as §2
# [10] = test system: lace shrub; assay: Experiment 3 foliar application to naturally growing shrubs; assay type: in vivo, Stephanandra incisa Zabel; conditions: after 3 months
# In short: as §3
# [11] = test system: Japanese bush cranberry; assay: as above; assay type: in vivo, Viburnum dilatatum Thunb.; conditions: after 3 months
# In short: as §3
# [12] = test system: oak; assay: as above; assay type: in vivo, Quercus serrata Thunb; conditions: after 3 months
# In short: as §3
# [13] = test system: torch azalea; assay: as above; assay type: in vivo, Rhododendoron Kaempferi Planch.; conditions: after 3 months
# In short: as §3
# [14] = test system: miyakozasa; assay: Experiment 2 foliar application in Japanese cypress afforested land; assay type: in vivo, Sasa nipponica Makino et Shibata; conditions: 0.25%
# Protocol: The detail of the assessment made in the following Experiments of the invention was as follows:
# The compounds of the invention and other compounds listed in Table 4. were diluted to prescribed concentrations and sprayed to shrubs by foliar application in a Japanese cypress afforested land in an amount of 150 liter per 10 are.
# After 30 days and 3 months, the killing index (0, no effect; 5, death) was determined.
# The heights of plants were 50-70 cm. for Japanese cypress, about 50 cm. for chestnut, 50-90 cm. for miyakozasa, about 100 cm. for eulalia and 70-100 cm. for kumaichigo, respectively.
# [15] = test system: kiichigo; assay: Experiment 3 foliar application to naturally growing shrubs; assay type: in vivo, Rubus palmatsu Thunb. forma coptophyllus Makino; conditions: after 3 months
# In short: as §3
# [16] = test system: white clover; assay: Experiment 1 foliar application to naturally growing weeds; assay type: in vivo, Trifolium repens L.; conditions: 4 months
# In short: as §1
# [17] = test system: cockspar grass; assay: as above; assay type: in vivo, Echinochloa Crusgalli P. Beauv.; conditions: for Reproduction-inhibiting effect: 2 months; for Killing index of Upperground parts: 21 days
# In short: as §2
# [18] = test system: manna grass; assay: as above; assay type: in vivo, Digitaria adsceudes Henr.; conditions: for Reproduction-inhibiting effect: 2 months; for Killing index of Upperground parts: 21 days
# In short: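 Foliar spray on field weeds at 150 liter per 10 are, compounds at prescribed concentrations plus 0.1% octylphenyl polyoxyethanol. Day 21: killing index 0–5 (5 = death). Reproduction scored (-) to (+++) (- = none): cockspar grass at 2 months, chigaya, azumanezasa and warunasubi at 4 months.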
compound,measurement,setting,value
C[C@H](NC(=O)[C@H](C)NC(=O)[C@@H](N)CCP(C)(=O)O)C(=O)O [(L-2-Amino-4-methylphosphinobutyryl)-L-alanyl-L-alanine mono] [(L-2-Amino-4-methylphosphinobutyryl)-L-alanyl-L-alanine monodiethanolammonium salt],Reproduction-inhibiting effect,[1]; 0.05%,+++
same,Reproduction-inhibiting effect,[1]; 0.1%,+++
same,Reproduction-inhibiting effect,[1]; 0.2%,+++
same,Killing index,[2]; after 3 months,4.5
same,Killing index,[2]; after 30 days,4.5
same,Reproduction-inhibiting effect,[3]; 0.05%,+++
same,Reproduction-inhibiting effect,[3]; 0.1%,++
same,Reproduction-inhibiting effect,[3]; 0.2%,-
same,Reproduction-inhibiting,[4]; 0.05%,+++
same,Reproduction-inhibiting,[4]; 0.1%,+
same,Reproduction-inhibiting,[4]; 0.2%,-
same,Reproduction-inhibiting effect,[5]; 0.05%,+++
same,Reproduction-inhibiting effect,[5]; 0.1%,+
same,Reproduction-inhibiting effect,[5]; 0.2%,-
same,Reproduction-inhibiting effect,[6]; 0.05%,+++
same,Reproduction-inhibiting effect,[6]; 0.1%,++
same,Reproduction-inhibiting effect,[6]; 0.2%,±
same,Reproduction-inhibiting effect,[7]; 0.05%,+++
same,Reproduction-inhibiting effect,[7]; 0.1%,+++
same,Reproduction-inhibiting effect,[7]; 0.2%,+
same,Reproduction-inhibiting,[8]; 0.05%,+++
same,Reproduction-inhibiting,[8]; 0.1%,++
same,Reproduction-inhibiting,[8]; 0.2%,-
same,Reproduction-inhibiting effect,[9]; 0.05%,+++
same,Reproduction-inhibiting effect,[9]; 0.1%,+++
same,Reproduction-inhibiting effect,[9]; 0.2%,+
same,Reproduction-inhibiting,[10]; 0.05%,+++
same,Reproduction-inhibiting,[10]; 0.1%,++
same,Reproduction-inhibiting,[10]; 0.2%,-
same,Reproduction-inhibiting,[11]; 0.05%,+++
same,Reproduction-inhibiting,[11]; 0.1%,+
same,Reproduction-inhibiting,[11]; 0.2%,-
same,Reproduction-inhibiting,[12]; 0.05%,+++
same,Reproduction-inhibiting,[12]; 0.1%,++
same,Reproduction-inhibiting,[12]; 0.2%,-
same,Reproduction-inhibiting,[13]; 0.05%,+++
same,Reproduction-inhibiting,[13]; 0.1%,++
same,Reproduction-inhibiting,[13]; 0.2%,-
same,Killing index,[14]; after 3 months,4.5
same,Killing index,[14]; after 30 days,4.5
same,Reproduction-inhibiting,[15]; 0.05%,+++
same,Reproduction-inhibiting,[15]; 0.1%,+
same,Reproduction-inhibiting,[15]; 0.2%,-
same,Reproduction-inhibiting effect,[16]; 0.05%,+++
same,Reproduction-inhibiting effect,[16]; 0.1%,+++
same,Reproduction-inhibiting effect,[16]; 0.2%,-
same,Reproduction-inhibiting effect,[17]; 0.05%,+++
same,Reproduction-inhibiting effect,[17]; 0.1%,++
same,Killing index of Upperground parts,[17]; 0.1%,3.5
same,Reproduction-inhibiting effect,[17]; 0.2%,-
same,Killing index of Upperground parts,[17]; 0.2%,4.5
same,Reproduction-inhibiting effect,[18]; 0.05%,+++
same,Reproduction-inhibiting effect,[18]; 0.1%,++
same,Killing index of Upperground parts,[18]; 0.1%,3.5
same,Reproduction-inhibiting effect,[18]; 0.2%,-
same,Killing index of Upperground parts,[18]; 0.2%,4.5
